Measurements reported in patent publication US20260167742A1, “METHOD FOR TREATING GASTRIC CANCER BY COMBINING ANTI-HER2 ANTIBODY AND CHEMOTHERAPEUTIC AGENT, AND USE” (SHANGHAI HENLIUS BIOTECH, INC., priority 2023, published 2026).

Columns and labels:
Assay type in all cases: cell-based, human
NCI-N87 cells = assay: Apoptosis assay (Caspase-Glo 3/7); conditions: 24 h treatment
Procedure: The apoptosis was assessed by measuring the activity of caspases 3/7 in gastric cancer NCI-N87 cells using the Caspase-Glo®3/7 Assay system. A xenograft human gastric cancer NCI-N87 model and a human gastric cancer PDX model were treated with the antibodies at given doses. All data are presented as mean±SEM. The p values were calculated using Student's t test. ** denotes p<0.01, and * denotes p<0.05.
The apoptosis was assessed by measuring the activity of caspases 3/7 in NCI-N87 cells using the Caspase-Glo®3/7 Assay (G8093, Promega) system. The cells were seeded in a 96-well plate (CLS3799, Corning) at about 1.5×10^4 cells/well and incubated overnight. The original medium was replaced with a drug-containing culture medium of 100 μL, and the cells were treated for 24 h. After an incubation at room temperature for 30 min, 100 μL of Caspase-Glo 3/7 reagent was added. The plate was incubated in the dark for 30 min and detected using Spark (Tecan, Switzerland) after gentle shaking.

[1] = tested on: gastric cancer cells SNU216; assay: HER2 internalization (endocytosis) assay, pHrodo Green staining, flow cytometry; conditions: 10 μg/mL
Procedure: (§1) A HER2 internalization assay was performed using pHrodoiFL Green STP ester amine reactive dye (P35369, Invitrogen). […] After a short wash with a wash buffer to remove unbound antibodies, one group of cells was placed on ice for freezing to stop internalization, and the remaining cells were placed in a 37° C. incubator for further incubation. After the co-incubation with the antibody, the cells were fixed with a fixation buffer (420801, Biolegend) for 30 min. Finally, all stained cells were washed with a staining buffer and analyzed on the CytoFLEX LX flow cytometer (Beckman Coulter, USA).

[2] = tested on: gastric cancer cells NCI-N87; assay: as above; conditions: 10 μg/mL
Procedure: as §1

pertuzumab: antibody comprising heavy chain SEQ ID NO: 13 and light chain SEQ ID NO: 14 [reference compound]
apoptosis (caspases 3/7 activity) (NCI-N87 cells): did not significantly induce the apoptosis of NCI-N87 cells | HER2 internalization (endocytosis) [1]: weak endocytosis | HER2 internalization (endocytosis) [2]: weak endocytosis
